Experimental data: patent publication US20060205769A1, “Piperidine or 8-aza-bicyclo[3.2.1]oct-3-yl derivatives useful as modulators of chemokine receptor activity” (priority 2003, published 2006)
Structures can show the parent of a compound that is named as a salt.

Target: T1, recombinant human CCR5 receptor (Homo sapiens, UniProt P51681)
T1 construct: expressed in transfected cells; host or cells: Chinese hamster ovary (CHO) cells; membranes
Assay: in vitro radioligand binding assay: inhibition of binding of iodinated MIP-1α to membranes of CHO cells expressing CCR5 (scintillation proximity)
Details: displacement of 0.1 nM iodinated MIP-1α; negative log (base 10) of IC50; average if tested more than once
Description: The ability of compounds to inhibit the binding of MIP-1α was assessed by an in vitro radioligand binding assay. Membranes were prepared from Chinese hamster ovary cells which expressed the recombinant human CCR5 receptor. These membranes were incubated with 0.1 nM iodinated MIP-1α, scintillation proximity beads and various concentrations of the compounds of the invention in 96-well plates. The amount of iodinated MIP-1α bound to the receptor was determined by scintillation counting. Competition curves were obtained for compounds and the concentration of compound which displaced 50% of bound iodinated MIP-1α was calculated (IC50).
In Table IV the results are presented as Pic50 values. A Pic50 value is the negative log (to base 10) of the IC50 result, so an IC50 of 1 μM (that is 1×10^−6M) gives a Pic50 of 6. If a compound was tested more than once then the data below is an average of the probative tests results.

T1 sequence (P51681 whole entry): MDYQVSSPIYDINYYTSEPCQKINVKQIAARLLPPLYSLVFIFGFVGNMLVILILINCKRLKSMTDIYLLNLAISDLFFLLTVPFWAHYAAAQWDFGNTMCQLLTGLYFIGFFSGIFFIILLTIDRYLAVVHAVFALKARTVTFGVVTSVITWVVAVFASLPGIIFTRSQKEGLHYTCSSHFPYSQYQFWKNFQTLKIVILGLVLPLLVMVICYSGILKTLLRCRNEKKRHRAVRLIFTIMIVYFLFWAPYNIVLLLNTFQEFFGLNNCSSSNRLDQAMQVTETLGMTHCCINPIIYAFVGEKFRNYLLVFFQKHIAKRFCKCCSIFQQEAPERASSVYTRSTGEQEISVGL

SMILES	IC50 [nM]
CS(=O)(=O)N1CCC([C@@H](CCN2CCC(CCS(=O)(=O)C3CCN(S(=O)(=O)C(F)(F)F)CC3)CC2)c2cc(F)cc(F)c2)CC1 [Table I Compound 3]	3.98
CS(=O)(=O)N1CCC([C@@H](CCN2CCC(CCS(=O)(=O)C3CCNCC3)CC2)c2cc(F)cc(F)c2)CC1 [Table I Compound 2]	39.8
CS(=O)(=O)c1ccc([C@@H](CCN2CCC(CCS(=O)(=O)N3CCCCC3)CC2)c2cc(F)cc(F)c2)cc1 [Table III Compound 1, (R)-1-{3-(3,5-difluorophenyl)-3-[4-(methylsulfonyl)phenyl]propyl}-4-[2-(piperidin-1-ylsulfonyl)ethyl]piperidine hydrochloride]	3.16
